From publication PMC4774894 (Journal of natural products, 2015)

System: HIV-1 NL4-3
Conditions: for selectivity index CC50/EC50: CC50 (MT4 cells) / EC50 (HIV-1 NL4-3 in MT4); for selectivity index (SI) (bound or span stated in text for a group of compounds): bound or span over the group named

Compound | selectivity index CC50/EC50 | selectivity index (SI) (bound or span stated in text for a group of compounds)
C=C(C)[C@]12C[C@@H](COC(=O)c3ccccc3)[C@]34OC5(CCCCCCC[C@H](C)[C@@H]6[C@@H]3[C@]3(O[C@]6(C)OC3=O)[C@H](O)[C@@]3(COC(=O)CCCCCCCCCCCCCCC)O[C@H]3[C@H]4[C@H]1O5)O2 [Compound 1, Stelleralide D] | ≥18 | < 50
C=C(C)[C@]12C[C@@H](COC(=O)c3ccccc3)[C@]34OC5(CCCCCCC[C@H](C)[C@@H]6[C@@H]3[C@]3(O[C@]6(C)OC3=O)[C@H](O)[C@@]3(COC(=O)CCCCCCC/C=C\C/C=C\CCCCC)O[C@H]3[C@H]4[C@H]1O5)O2 [Compound 2, Stelleralide E] | ≥1 | < 50
C=C(C)[C@]12C[C@@H](COC(C)=O)[C@@]34OC5(O[C@@H]1[C@@H]3[C@@H]1O[C@]1(CO)[C@@H](O)[C@@]1(O)[C@H]4[C@H]([C@H](C)[C@@H]1OC(=O)c1ccccc1)[C@H](C)C[C@@H](OC(=O)c1ccccc1)CCCC[C@H]5O)O2 [Compound 3, Stelleralide F] | ≥12903 | more than 10 000
C=C(C)[C@]12C[C@@H](COC(=O)c3ccccc3)[C@@]34OC5(O[C@@H]1[C@@H]3[C@@H]1O[C@]1(CO)[C@@H](O)[C@@]1(O)[C@H]4[C@H]([C@H](C)[C@@H]1OC(=O)c1ccccc1)[C@H](C)C[C@@H](OC(=O)c1ccccc1)CCCC[C@H]5O)O2 [Compound 4, Stelleralide G] | ≥15342 | more than 10 000
C=C(C)[C@]12C[C@@H](COC(=O)c3ccccc3)[C@@]34OC5(O[C@@H]1[C@@H]3[C@@H]1O[C@]1(COC(=O)c1ccccc1)[C@@H](O)[C@@]1(O)[C@H]4[C@H]([C@H](C)[C@@H]1O)[C@H](C)CCCCCC[C@H]5O)O2 [Compound 5, Stelleralide H] | ≥13163 | more than 10 000
C=C(C)[C@@]12OC3(/C=C/C=C/CCCCCCCCCC)O[C@@H]1[C@@H]1[C@@H]4O[C@]4(CO)[C@@H](O)[C@]4(O)C(=O)C(C)=C[C@H]4[C@@]1(O3)[C@H](C)[C@H]2O [Compound 6, Stelleralide I] | ≥135 | –
C=C(C)[C@]1(O)C[C@@H](C)[C@@]2(O)[C@H]([C@H]1OC(=O)/C=C/C=C/CCCCCCCCC)[C@H](O)[C@@](O)(CO)[C@@H](O)[C@]1(O)C(=O)C(C)=C[C@H]12 [Compound 7, Stelleralide J] | ≥100 | –
C=C(C)[C@]12C[C@@H](COC(=O)c3ccccc3)[C@]34OC5(CCCCCCC[C@H](C)[C@@H]6[C@@H]3[C@]3(O[C@]6(C)OC3=O)[C@H](O)[C@@]3(CO)O[C@H]3[C@H]4[C@H]1O5)O2 [Compound 8, stelleralide C] | ≥41 | < 50
C=C(C)[C@]12C[C@@H](C)[C@]34O[C@]5(CCCCCCC[C@H](C)[C@@H]6[C@@H]3[C@]3(O[C@]6(C)OC3=O)[C@H](O)[C@@]3(CO)O[C@H]3[C@H]4[C@H]1O5)O2 [Compound 9, pimelotide A] | ≥16 | < 50
C=C(C)[C@]12C[C@@H](COC(=O)c3ccccc3)[C@@]34OC5(O[C@@H]1[C@@H]3[C@@H]1O[C@]1(CO)[C@@H](O)[C@@]1(O)[C@H]4[C@H]([C@H](C)[C@@H]1OC(=O)c1ccccc1)[C@H](C)CCCCCC[C@H]5O)O2 [Compound 10, gnidimacrin] | ≥21500 | more than 10 000
C=C(C)[C@]12C[C@@H](C)[C@@]34OC5(CCCCCCC[C@@H](C)[C@H]6[C@H](C)[C@H](OC(=O)c7ccccc7)[C@@](O)([C@H](O)[C@@]7(CO)O[C@H]7[C@H]3[C@H]1O5)[C@@H]64)O2 [Compound 11, pimelea factor P2] | ≥14272 | more than 10 000
C=C(C)[C@]12C[C@@H](COC(=O)c3ccccc3)[C@@]34OC5(CCCCCCC[C@@H](C)[C@H]6[C@H](C)C(=O)[C@@](O)([C@H](O)[C@@]7(CO)O[C@H]7[C@H]3[C@H]1O5)[C@@H]64)O2 [Compound 12, wikstroelide F] | ≥318 | –
C=C(C)[C@@]12O[C@@]3(/C=C/C=C/CCCCCCCCC)O[C@@H]1[C@@H]1[C@@H]4O[C@]4(CO)[C@@H](O)[C@]4(O)C(=O)C(C)=C[C@H]4[C@@]1(O3)[C@H](C)[C@H]2OC(C)=O [Compound 13, wikstroelide A] | ≥1300 | –
C=C(C)[C@@]12OC3(/C=C/C=C/CCCCCCCCCC)O[C@@H]1[C@@H]1[C@@H]4O[C@]4(CO)[C@@H](O)[C@]4(O)C(=O)C(C)=C[C@H]4[C@@]1(O3)[C@H](C)[C@H]2OC(C)=O [Compound 14, wikstroelide B] | ≥392 | –
C=C(C)[C@]12C[C@@H](C)[C@@]34OC(/C=C/C=C/CCCCCCCCCC)(O[C@@H]1[C@@H]3[C@@H]1O[C@]1(CO)[C@@H](O)[C@]1(O)C(=O)C(C)=C[C@H]14)O2 [Compound 15, wikstrotoxin A] | ≥1284 | –
C=C(C)[C@]12C[C@@H](C)[C@@]34O[C@](/C=C/C=C/CCCCCCCCC)(O[C@@H]1[C@@H]3[C@@H]1O[C@]1(CO)[C@@H](O)[C@]1(O)C(=O)C(C)=C[C@H]14)O2 [Compound 16, huratoxin] | ≥5384 | –
C=C(C)[C@]1(O)C[C@@H](C)[C@@]2(O)[C@H]([C@H]1OC(=O)/C=C/C=C/CCCCCCCCC)[C@@H]1O[C@]1(CO)[C@@H](O)[C@]1(O)C(=O)C(C)=C[C@H]12 [Compound 17, wikstroelide M] | ≥281 | –
C=C(C)[C@@]1(O)[C@H](OC(=O)/C=C/C=C/CCCCCCCCC)[C@@H]2[C@@H]3O[C@]3(CO)[C@@H](O)[C@]3(O)C(=O)C(C)=C[C@H]3[C@@]2(O)[C@H](C)[C@H]1OC(C)=O [Compound 18, wikstroelide J] | ≥345 | –
C=C(C)[C@]12C[C@@H](C)[C@@]34O[C@](CCCCCCCCC)(O[C@@H]1[C@@H]3[C@@H]1O[C@]1(CO)[C@@H](O)[C@]1(O)C(=O)C(C)=C[C@H]14)O2 [Compound 19, simplexin] | ≥400 | –
